Test systems include ACHN renal; KM12 colon; LOX IMVI melanoma; MALME-3M melanoma; MCF7 breast; NCI-H23 lung; SK-MEL-5 melanoma; SN12C renal; HCC-2998 colon; RPMI-8226 leukemia.
What all share (assay): DTP human tumour cell line panel, 48 h

The values below come from PubChem BioAssay (NCI).

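48-hour exposure; five concentrations; linearly interpolated endpoints. GI50 is the concentration that inhibits growth by half. TGI denotes the concentration required for complete inhibition of growth.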

As a reminder, the TGI is the concentration giving total growth inhibition. In the case of `Cc1ccc2c3c1[C@@H]1O[C@@H]1c1cccc(c1-3)[C@@H]1O[C@H]21`, the TGI worked out at 31 µM in the assay with ACHN renal; 28.8 µM with KM12 colon; 7.38 µM in the assay on LOX IMVI melanoma; 31 µM in the assay with MALME-3M melanoma; 34.8 µM in the assay on MCF7 breast; 31.8 µM in the assay on NCI-H23 lung. Moreover, the total growth inhibition concentration (TGI) with SK-MEL-5 melanoma stood at 30.6 µM; in the assay with SN12C renal, 25.5 µM.
Consider `N#Cc1c(-c2ccc(Cl)cc2)c2c([nH]c1=O)-c1cc([N+](=O)[O-])ccc1CCC2`, for which the total growth inhibition concentration (TGI) with ACHN renal was above 100 µM; in the assay on HCC-2998 colon, 35.7 µM; in the assay on KM12 colon it was 55.5 µM; in the assay on LOX IMVI melanoma it was 37.9 µM; with MALME-3M melanoma it was above 100 µM; with MCF7 breast it was 83 µM. Besides, the total growth inhibition concentration (TGI) was 36.2 µM in the assay with NCI-H23 lung, above 100 µM in the assay with RPMI-8226 leukemia, 40.7 µM with SK-MEL-5 melanoma and 34.7 µM in the assay on SN12C renal.
Regarding `COP(=O)(OC)[C@H](O)[C@H]1C[C@@H]1c1ccccc1`, the TGI with ACHN renal, in the assay with HCC-2998 colon, in the assay with KM12 colon, in the assay with LOX IMVI melanoma, in the assay on MALME-3M melanoma and in the assay with MCF7 breast was above 100 µM each time. Also, the total growth inhibition concentration (TGI) with NCI-H23 lung, in the assay with RPMI-8226 leukemia and in the assay with SK-MEL-5 melanoma was above 100 µM throughout.
Regarding `NC(=O)CCSC(CC(=O)c1ccc(Cl)cc1)c1ccc(Cl)cc1` (stereo not drawn), the TGI with ACHN renal is above 100 µM; in the assay with HCC-2998 colon, 32.7 µM; with KM12 colon it was 19.6 µM; with LOX IMVI melanoma, 25.5 µM; in the assay with MALME-3M melanoma, 66.8 µM; in the assay on MCF7 breast, 47.4 µM. The TGI with NCI-H23 lung was above 100 µM; in the assay on RPMI-8226 leukemia it was 5.71 µM; in the assay on SK-MEL-5 melanoma it was 42.9 µM; in the assay with SN12C renal, 83.2 µM.
For the molecule `O=c1[nH]c2cc([N+](=O)[O-])c(N/N=C/c3ccc(Cl)cc3Cl)c([N+](=O)[O-])c2[nH]1`, the TGI was above 100 µM in the assay with ACHN renal; 25.8 µM with KM12 colon; above 100 µM in the assay on LOX IMVI melanoma; above 100 µM in the assay on MALME-3M melanoma; above 100 µM in the assay with MCF7 breast; above 100 µM in the assay with NCI-H23 lung. In addition, the TGI with RPMI-8226 leukemia, in the assay on SK-MEL-5 melanoma and in the assay with SN12C renal was above 100 µM in each case.
As to `COc1ccc(N=Nc2c(N)nn(C)c2N)cc1`, the total growth inhibition concentration (TGI) with ACHN renal, in the assay on KM12 colon, in the assay with LOX IMVI melanoma, with MALME-3M melanoma, in the assay with NCI-H23 lung and with RPMI-8226 leukemia was above 100 µM in each case. In addition, the concentration for total growth inhibition (TGI) in the assay on SK-MEL-5 melanoma and with SN12C renal was above 100 µM throughout.
Take `O=C(NC(Cc1ccc(Cl)cc1)C(=O)O)c1ccc(I)cc1` (stereo not drawn): the total growth inhibition concentration (TGI) in the assay with KM12 colon, in the assay with LOX IMVI melanoma, in the assay with MALME-3M melanoma, in the assay on MCF7 breast, in the assay with NCI-H23 lung and with RPMI-8226 leukemia was above 100 µM in each case. The TGI in the assay on SK-MEL-5 melanoma and in the assay on SN12C renal was above 100 µM each time.
Turning to `CCCCCCCCCCCCSC(=S)c1c(C)[nH]n(CCCCCCCCCCCC)c1=O`, the concentration for total growth inhibition (TGI) with ACHN renal, in the assay with HCC-2998 colon, with KM12 colon, in the assay on LOX IMVI melanoma, in the assay with MALME-3M melanoma and with NCI-H23 lung was above 100 µM each time. The total growth inhibition concentration (TGI) in the assay with RPMI-8226 leukemia, in the assay on SK-MEL-5 melanoma and with SN12C renal was above 100 µM each time.
In the case of `COc1cc(C2C(=O)C(Cl)N2Nc2nc(C)cc(=O)[nH]2)cc(OC)c1OC` (stereo not drawn), the TGI is 68.5 µM with ACHN renal; 33 µM with HCC-2998 colon; 76.9 µM with KM12 colon; 27.5 µM in the assay with LOX IMVI melanoma; 50.3 µM in the assay with NCI-H23 lung; 26.5 µM in the assay with SK-MEL-5 melanoma. Moreover, the concentration for total growth inhibition (TGI) in the assay with SN12C renal came to 53.1 µM.
Regarding `CN1NC(c2ccccc2)=C(C#N)C(=O)CC1c1ccc(F)cc1` (stereo not drawn), the TGI in the assay on ACHN renal, in the assay on HCC-2998 colon, in the assay with KM12 colon, in the assay with LOX IMVI melanoma, in the assay with MALME-3M melanoma and in the assay with NCI-H23 lung was above 100 µM each time. The TGI in the assay with RPMI-8226 leukemia, in the assay on SK-MEL-5 melanoma and in the assay with SN12C renal was above 100 µM in each case.
As for `Cn1c2cn[nH]c(=O)c2c2ccc3ccccc3c21`, the TGI with ACHN renal is 45.9 µM; with KM12 colon it was above 100 µM; in the assay with LOX IMVI melanoma, 53.8 µM; in the assay with MALME-3M melanoma, above 100 µM; in the assay with MCF7 breast, above 100 µM; in the assay on NCI-H23 lung, 67.2 µM. The total growth inhibition concentration (TGI) in the assay on RPMI-8226 leukemia, with SK-MEL-5 melanoma and with SN12C renal was above 100 µM each time.
As for `O=C(CSSCC(=O)OCCS(=O)(=O)Nc1ccc(Br)cc1)OCCS(=O)(=O)Nc1ccc(Br)cc1`, the TGI with ACHN renal amounted to 82.8 µM; with HCC-2998 colon it was 25.9 µM; in the assay with KM12 colon it was 30 µM; in the assay on LOX IMVI melanoma, 42.3 µM; with MALME-3M melanoma, 22.8 µM; in the assay with NCI-H23 lung it was 64 µM. Besides, the TGI in the assay with RPMI-8226 leukemia was found to be 83.7 µM; in the assay with SK-MEL-5 melanoma, 26 µM; in the assay on SN12C renal, 59.8 µM.
On to `Cc1cc2c(cc1Cl)SC(c1ccccc1O)NS2(=O)=O` (stereo not drawn), for which the concentration for total growth inhibition (TGI) in the assay with ACHN renal is above 100 µM; in the assay with HCC-2998 colon, above 100 µM; in the assay with KM12 colon, above 100 µM; in the assay on LOX IMVI melanoma it was above 100 µM; in the assay with MALME-3M melanoma it was 61.8 µM; in the assay on MCF7 breast, above 100 µM. In addition, the TGI in the assay on NCI-H23 lung, in the assay with SK-MEL-5 melanoma and in the assay on SN12C renal was above 100 µM each time.
A word on the GI50: it is the concentration at which growth is held to half of that of the control. For `CC(C)(C)c1cc(-c2nc3ccc(N4CCN(CCO)CC4)cc3[nH]2)cc(C(C)(C)C)c1O`, the GI50 is 3.39 µM with ACHN renal; 1.86 µM in the assay with LOX IMVI melanoma; 1.47 µM with MALME-3M melanoma; 4.65 µM in the assay with NCI-H23 lung; 1.74 µM in the assay on SK-MEL-5 melanoma; 3.77 µM in the assay with SN12C renal. The concentration for total growth inhibition (TGI) was above 100 µM in the assay with ACHN renal; 3.43 µM in the assay with LOX IMVI melanoma; 2.83 µM with MALME-3M melanoma; above 100 µM in the assay with NCI-H23 lung; 3.14 µM in the assay with SK-MEL-5 melanoma; above 100 µM in the assay on SN12C renal.
Regarding `Cc1cn(Cc2cn(CC3OC(n4cc(C)c(=O)[nH]c4=O)CC3O)nn2)c(=O)[nH]c1=O` (stereo not drawn), the concentration for total growth inhibition (TGI) with ACHN renal, in the assay with HCC-2998 colon, with KM12 colon, with MALME-3M melanoma, with MCF7 breast and in the assay with NCI-H23 lung was above 100 µM throughout. Further, the TGI in the assay on RPMI-8226 leukemia, in the assay on SK-MEL-5 melanoma and in the assay with SN12C renal was above 100 µM throughout.
Take `N=C(N)c1ccc(N=Nc2c(O)ccc3cc4c(N=Nc5ccc(C(=N)N)cc5)c(O)ccc4cc23)cc1`: the TGI in the assay on ACHN renal, in the assay with HCC-2998 colon, in the assay on KM12 colon, in the assay with MALME-3M melanoma, in the assay with MCF7 breast and in the assay with RPMI-8226 leukemia was above 100 µM in each case. Further, the TGI in the assay with SK-MEL-5 melanoma and with SN12C renal was above 100 µM in each case.
For the molecule `Cn1c(=O)ccc2c(=O)c3ccccc3oc21`, the TGI in the assay with ACHN renal, with HCC-2998 colon, in the assay on KM12 colon, with LOX IMVI melanoma, with MALME-3M melanoma and with NCI-H23 lung was above 100 µM throughout. Besides, the total growth inhibition concentration (TGI) with SK-MEL-5 melanoma and with SN12C renal was above 100 µM each time.
Take `O=c1c(-c2ccccc2)c(SCCN2CCOCC2)n(-c2ccccc2)c(=S)n1-c1ccccc1`: the concentration for total growth inhibition (TGI) with ACHN renal, in the assay on HCC-2998 colon, in the assay with KM12 colon, in the assay with LOX IMVI melanoma, in the assay on MALME-3M melanoma and in the assay with MCF7 breast was above 100 µM in each case. Also, the total growth inhibition concentration (TGI) with NCI-H23 lung, with RPMI-8226 leukemia and in the assay on SK-MEL-5 melanoma was above 100 µM each time.
Regarding `COc1cccc(NC(=O)CC(=O)NN2C(=O)/C(=C/c3ccc(N(CCC#N)CCC#N)cc3)N=C2c2cc([N+](=O)[O-])ccc2Cl)c1`, the TGI with ACHN renal, in the assay on HCC-2998 colon, in the assay on KM12 colon, in the assay on LOX IMVI melanoma, with MALME-3M melanoma and with NCI-H23 lung was above 100 µM throughout. In addition, the TGI in the assay with RPMI-8226 leukemia, in the assay with SK-MEL-5 melanoma and in the assay with SN12C renal was above 100 µM in each case.
As for `Cn1cc(-c2nnc(-c3ccc(Cl)cc3)[nH]c2=O)c2ccccc21`, the TGI is above 76.1 µM in the assay with ACHN renal; above 23.9 µM in the assay on KM12 colon; above 100 µM in the assay on LOX IMVI melanoma; above 25.8 µM in the assay on MALME-3M melanoma; above 39.6 µM in the assay with MCF7 breast; above 100 µM with NCI-H23 lung. Besides, the values for the TGI with RPMI-8226 leukemia, with SK-MEL-5 melanoma and in the assay on SN12C renal were 44.7 µM, above 43.7 µM and above 64 µM, respectively.
In the case of `C=C1CC2C3C=C(C)C4=CC(=O)CC[C@]4(C)C3CC[C@]2(C)[C@@]1(OC(C)=O)C(C)=O` (stereo partly drawn), the GI50 in the assay with MCF7 breast was 4.16 µM; with RPMI-8226 leukemia, 1.25 µM; in the assay with SN12C renal, 1.16 µM. Further, the total growth inhibition concentration (TGI) with MCF7 breast is above 100 µM; in the assay with RPMI-8226 leukemia, 5.6 µM; in the assay on SN12C renal, above 100 µM.
Regarding `Cc1ccc(C(=O)Nc2ncn(C3CC(O)C(CO)O3)c(=O)n2)cc1` (stereo not drawn), the TGI in the assay with HCC-2998 colon, in the assay on KM12 colon, in the assay with LOX IMVI melanoma, with MALME-3M melanoma, in the assay on MCF7 breast and with NCI-H23 lung was above 100 µM in each case. Further, the total growth inhibition concentration (TGI) in the assay with RPMI-8226 leukemia, in the assay on SK-MEL-5 melanoma and in the assay with SN12C renal was above 100 µM each time.
